# Assays:
# [1] = test system: P14 naive CD44loCD8+ T cells; test: In vitro priming of CFSE-labeled P14 naive CD8+ T cells with gp33-pulsed DCs, IL-2 and titrated rapamycin: cell counts, CFSE division, live cell ratio; type: cell-based, mouse; settings: day 8 after culture, 50 or 100 nM rapamycin
# [2] = test system: antigen-primed CD8+ T cells; test: Oxygen consumption and lactate production assay, share of ATP from oxidative phosphorylation and glycolysis
# [3] = test system: antigen-primed CD8+ T cells; test: Secondary culture in the absence of IL-2 (IL-2 withdrawal), live cell ratio, with or without oligomycin; type: cell-based, mouse
structure (smiles),measurement,setting,value
CO[C@H]1C[C@@H]2CC[C@@H](C)[C@@](O)(O2)C(=O)C(=O)N2CCCC[C@H]2C(=O)O[C@H]([C@H](C)C[C@@H]2CC[C@@H](O)[C@H](OC)C2)CC(=O)[C@H](C)/C=C(\C)[C@@H](O)[C@@H](OC)C(=O)[C@H](C)C[C@H](C)/C=C/C=C/C=C/1C [rapamycin],dead cells,[1],less than 5%
same,oxygen consumption increase versus IL-2 CD8+ T cells,[2]; cells collected 6 days after culture,2 fold
same,ATP derived from oxidative phosphorylation metabolism,[2]; share of total ATP generation,more than 90%
same,viable cells after IL-2 withdrawal,[3]; by 24 hours after IL-2 withdrawal,Approximately 100%
same,cells remaining lived after IL-2 withdrawal,[3]; by 74 hours after withdrawal,more than 60%
